Assay results taken from patent publication US9695155B2, “Herbicidal substituted pyrimidinyloxy benzene compounds” (E. I. DU PONT DE NEMOURS AND COMPANY, priority 2013, dated 2017).

Key:
morningglory = test: Test A preemergence; assay type: in vivo, Ipomoea spp.
Outline: (§1)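 Greenhouse pot test, loam/sand soil. Formulation: non-phytotoxic solvent mix plus surfactant. Pre: directed spray onto soil after sowing. Post: plants at 1–2 leaf, 2–10 cm. Rated visually vs untreated controls at ~10 d, 0 (no effect) to 100 (complete control).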

pigweed [1] = test: Test A preemergence; assay type: in vivo, Amaranthus retroflexus; conditions: Amaranthus retroflexus, pre-emergence
Outline: as §1

wheat [2] = test: Test A preemergence; assay type: in vivo, Triticum aestivum
Outline: as §1

pigweed [3] = test: Test A postemergence; assay type: in vivo, Amaranthus retroflexus; conditions: Amaranthus retroflexus, post-emergence
Outline: as §1

wheat [4] = test: Test A postemergence; assay type: in vivo, Triticum aestivum; conditions: Triticum aestivum, post-emergence, 240 h
Outline: as §1

sedge, umbrella = test: Test B flooded paddy test; assay type: in vivo, Cyperus difformis; conditions: Cyperus difformis, Flood, 250 g ai/ha; 0 to 100 scale where 0 is no effect and 100 is complete control; read-out: Plant response rating, Sedge, Umbrella
Outline: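 Scores from 0 (no effect) to 100 (complete control) are visual comparisons with controls, taken 13 to 15 days after compound was applied into floodwater 3 cm deep around 2-leaf plants.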

Italian ryegrass = test: Test C preemergence; assay type: in vivo, Lolium multiflorum; conditions: Lolium multiflorum, pre-emergence
Outline: (§2)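 Injury was assessed visually against controls 13 to 15 days after application, with 0 meaning no effect and 100 full control; missing entries are shown as a dash. Preemergence sprays hit seeded loam–sand soil, postemergence sprays hit 1- to 4-leaf plants.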

galium = test: Test C preemergence; assay type: in vivo, Galium aparine; conditions: Galium, pre-emergence
Outline: as §2

large (Lg) crabgrass = test: Test C postemergence; assay type: in vivo, Digitaria sanguinalis; conditions: Digitaria sanguinalis, post-emergence
Outline: as §2

giant foxtail = test: Test C postemergence; assay type: in vivo, Setaria faberii; conditions: Setaria faberi, post-emergence
Outline: as §2

johnsongrass = test: Test C postemergence; assay type: in vivo, Sorghum halepense; conditions: Sorghum halepense, post-emergence
Outline: as §2

yellow nutsedge = test: Test C postemergence; assay type: in vivo, Cyperus esculentus; conditions: Cyperus, post-emergence
Outline: as §2

soybean = test: Test C postemergence; assay type: in vivo, Glycine max; conditions: Glycine max, post-emergence
Outline: as §2

oilseed rape = test: Test C postemergence; assay type: in vivo, Brassica napus; conditions: Brassica napus, post-emergence
Outline: as §2

velvetleaf = test: Test C postemergence; assay type: in vivo, Abutilon theophrasti; conditions: Abutilon theophrasti, post-emergence
Outline: as §2

[5] = 125 g ai/ha, 0 to 100 scale where 0 is no effect and 100 is complete control
[6] = 125 g ai/ha, 0 to 100 scale where 0 is no effect and 100 is complete control, read-out: Plant response rating, Pigweed

Question: Which “Plant response rating, Morningglory” value (morningglory; [5]) does the source give for `N#Cc1cccc(Oc2ncc(Cl)cn2)c1-n1cc(C(F)(F)F)cn1` [Compound 58, 3-[(5-chloro-2-pyrimidinyl)oxy]-2-[4-(trifluoromethyl)-1H-pyrazol-1-yl]benzonitrile] here?
Answer: 100

Question: And the pest or weed control at 500 g/ha (morningglory; Ipomoea, pre-emergence, 240 h, 500 g ai/ha, 0 to 100 scale, 0 no effect, 100 complete control, approx. 10 days, read-out: Morningglory plant response rating)?
Answer: 100%

Question: And the pest or weed control at 125 g/ha (pigweed [1]; [6])?
Answer: 100%

Question: And the pest or weed control at 500 g/ha (pigweed [1]; 240 h, 500 g ai/ha, 0 to 100 scale, 0 no effect, 100 complete control, approx. 10 days, read-out: Pigweed plant response rating)?
Answer: 100%

Question: What about the “Plant response rating, Wheat” value (wheat [2]; [5]) of the same compound?
Answer: 60

Question: And the plant injury at 500 g/ha (wheat [2]; Triticum aestivum, pre-emergence, 240 h, 500 g ai/ha, 0 to 100 scale, 0 no effect, 100 complete control, approx. 10 days, read-out: Wheat plant response rating)?
Answer: 90%

Question: And the pest or weed control at 125 g/ha (pigweed [3]; [6])?
Answer: 100%

Question: What about the pest or weed control at 500 g/ha (pigweed [3]; 240 h, 500 g ai/ha, 0 to 100 scale, 0 no effect, 100 complete control, read-out: Plant response rating Pigweed) of the same compound?
Answer: 100%

Question: And the plant injury at 125 g/ha (wheat [4]; 125 g ai/ha, 0 to 100 scale where 0 is no effect and 100 is complete control, read-out: Plant response rating, Wheat)?
Answer: 90%

Question: And the plant injury at 500 g/ha (wheat [4]; 500 g ai/ha, 0 to 100 scale, 0 no effect, 100 complete control, read-out: Plant response rating Wheat)?
Answer: 100%

Question: What about the pest or weed control at 250 g/ha (sedge, umbrella) of the same compound?
Answer: 90%

Question: What about the pest or weed control at 62 g/ha (Italian ryegrass; 62 g ai/ha, preemergence, scale 0 (no effect) to 100 (complete control), read-out: Ryegrass, Italian plant response rating) of the same compound?
Answer: 90%

Question: And the pest or weed control at 125 g/ha (Italian ryegrass; 125 g ai/ha, preemergence, scale 0 (no effect) to 100 (complete control), read-out: Ryegrass, Italian plant response rating)?
Answer: 90%

Question: And the pest or weed control at 250 g/ha (Italian ryegrass; 250 g ai/ha, preemergence, scale 0 (no effect) to 100 (complete control), read-out: Ryegrass, Italian plant response rating)?
Answer: 90%

Question: And the pest or weed control at 31 g/ha (Italian ryegrass; Preemergence, 31 g ai/ha, scale 0 to 100, 0 no effect, 100 complete control, read-out: Plant response rating, Ryegrass, Italian)?
Answer: 90%

Question: And the pest or weed control at 62 g/ha (galium; 62 g ai/ha, preemergence, scale 0 (no effect) to 100 (complete control), read-out: Galium plant response rating)?
Answer: 100%

Question: And the pest or weed control at 125 g/ha (galium; 125 g ai/ha, preemergence, scale 0 (no effect) to 100 (complete control), read-out: Galium plant response rating)?
Answer: 100%

Question: What about the pest or weed control at 250 g/ha (galium; 250 g ai/ha, preemergence, scale 0 (no effect) to 100 (complete control), read-out: Galium plant response rating) of the same compound?
Answer: 100%

Question: What about the pest or weed control at 31 g/ha (galium; Preemergence, 31 g ai/ha, scale 0 to 100, 0 no effect, 100 complete control, read-out: Plant response rating, Galium) of the same compound?
Answer: 100%

Question: And the pest or weed control at 125 g/ha (large (Lg) crabgrass; 125 g ai/ha, postemergence, read-out: Plant response rating (0 to 100), Crabgrass, Large)?
Answer: 50%

Question: And the pest or weed control at 250 g/ha (large (Lg) crabgrass; 250 g ai/ha, postemergence, read-out: Plant response rating (0 to 100), Crabgrass, Large)?
Answer: 85%

Question: And the pest or weed control at 31 g/ha (large (Lg) crabgrass; Postemergence, 31 g ai/ha, scale 0 to 100 (0 no effect, 100 complete control), 13 to 15 days, read-out: Plant response rating, Crabgrass, Large)?
Answer: 5%

Question: What about the pest or weed control at 62 g/ha (large (Lg) crabgrass; Postemergence, 62 g ai/ha, scale 0 to 100 (0 no effect, 100 complete control), read-out: Plant response rating, Crabgrass, Large) of the same compound?
Answer: 20%

Question: And the pest or weed control at 125 g/ha (giant foxtail; 125 g ai/ha, postemergence, read-out: Plant response rating (0 to 100), Foxtail, Giant)?
Answer: 80%

Question: What about the pest or weed control at 250 g/ha (giant foxtail; 250 g ai/ha, postemergence, read-out: Plant response rating (0 to 100), Foxtail, Giant) of the same compound?
Answer: 95%

Question: What about the pest or weed control at 31 g/ha (giant foxtail; Postemergence, 31 g ai/ha, scale 0 to 100 (0 no effect, 100 complete control), 13 to 15 days, read-out: Plant response rating, Foxtail, Giant) of the same compound?
Answer: 15%

Question: What about the pest or weed control at 62 g/ha (giant foxtail; Postemergence, 62 g ai/ha, scale 0 to 100 (0 no effect, 100 complete control), read-out: Plant response rating, Foxtail, Giant) of the same compound?
Answer: 40%

Question: What about the pest or weed control at 125 g/ha (johnsongrass; 125 g ai/ha, postemergence, read-out: Plant response rating (0 to 100), Johnsongrass) of the same compound?
Answer: 35%

Question: And the pest or weed control at 250 g/ha (johnsongrass; 250 g ai/ha, postemergence, read-out: Plant response rating (0 to 100), Johnsongrass)?
Answer: 85%

Question: And the pest or weed control at 31 g/ha (johnsongrass; Postemergence, 31 g ai/ha, scale 0 to 100 (0 no effect, 100 complete control), 13 to 15 days, read-out: Plant response rating, Johnsongrass)?
Answer: 15%

Question: What about the pest or weed control at 62 g/ha (johnsongrass; Postemergence, 62 g ai/ha, scale 0 to 100 (0 no effect, 100 complete control), read-out: Plant response rating, Johnsongrass) of the same compound?
Answer: 15%

Question: And the pest or weed control at 125 g/ha (yellow nutsedge; 125 g ai/ha, postemergence, read-out: Plant response rating (0 to 100), Nutsedge, Yellow)?
Answer: 15%

Question: What about the pest or weed control at 250 g/ha (yellow nutsedge; 250 g ai/ha, postemergence, read-out: Plant response rating (0 to 100), Nutsedge, Yellow) of the same compound?
Answer: 15%

Question: What about the pest or weed control at 31 g/ha (yellow nutsedge; Postemergence, 31 g ai/ha, scale 0 to 100 (0 no effect, 100 complete control), 13 to 15 days, read-out: Plant response rating, Nutsedge, Yellow) of the same compound?
Answer: 5%

Question: And the pest or weed control at 62 g/ha (yellow nutsedge; Postemergence, 62 g ai/ha, scale 0 to 100 (0 no effect, 100 complete control), read-out: Plant response rating, Nutsedge, Yellow)?
Answer: 5%

Question: And the Soybean plant response rating (crop injury, 0-100 scale) at 125 g/ha (soybean; 125 g ai/ha, postemergence, read-out: Plant response rating (0 to 100), Soybean)?
Answer: 98%

Question: And the Soybean plant response rating (crop injury, 0-100 scale) at 250 g/ha (soybean; 250 g ai/ha, postemergence)?
Answer: 98%

Question: What about the Soybean plant response rating (crop injury, 0-100 scale) at 31 g/ha (soybean; Postemergence, 31 g ai/ha, scale 0 to 100 (0 no effect, 100 complete control), 13 to 15 days) of the same compound?
Answer: 95%

Question: What about the Soybean plant response rating (crop injury, 0-100 scale) at 62 g/ha (soybean; Postemergence, 62 g ai/ha, scale 0 to 100 (0 no effect, 100 complete control)) of the same compound?
Answer: 95%

Question: What about the plant injury at 125 g/ha (oilseed rape; 125 g ai/ha, postemergence, read-out: Plant response rating (0 to 100), Oilseed Rape) of the same compound?
Answer: 85%

Question: And the plant injury at 250 g/ha (oilseed rape; 250 g ai/ha, postemergence, read-out: Plant response rating (0 to 100), Oilseed Rape)?
Answer: 85%

Question: What about the plant injury at 31 g/ha (oilseed rape; Postemergence, 31 g ai/ha, scale 0 to 100 (0 no effect, 100 complete control), 13 to 15 days, read-out: Plant response rating, Oilseed Rape) of the same compound?
Answer: 60%

Question: And the plant injury at 62 g/ha (oilseed rape; Postemergence, 62 g ai/ha, scale 0 to 100 (0 no effect, 100 complete control), read-out: Plant response rating, Oilseed Rape)?
Answer: 70%

Question: And the pest or weed control at 125 g/ha (velvetleaf; 125 g ai/ha, postemergence, read-out: Plant response rating (0 to 100), Velvetleaf)?
Answer: 60%

Question: What about the pest or weed control at 250 g/ha (velvetleaf; 250 g ai/ha, postemergence, read-out: Plant response rating (0 to 100), Velvetleaf) of the same compound?
Answer: 85%

Question: And the pest or weed control at 31 g/ha (velvetleaf; Postemergence, 31 g ai/ha, scale 0 to 100 (0 no effect, 100 complete control), 13 to 15 days, read-out: Plant response rating, Velvetleaf)?
Answer: 45%

Question: And the pest or weed control at 62 g/ha (velvetleaf; Postemergence, 62 g ai/ha, scale 0 to 100 (0 no effect, 100 complete control), read-out: Plant response rating, Velvetleaf)?
Answer: 50%
